pIC50: −log10 of the molar value.
The molecules below were run against T1, G-protein coupled receptor 84 (Homo sapiens, UniProt Q9NQS5) (assay: Antagonist activity against GPR84 (unknown origin) expressed in cell membranes assessed as inhibition of 3,3'-di-indolylmethane-induced [35S]GTPgammaS binding treated for 90 mins after 3,3'-di-indolylmethane stimulation in buffer containing 20 mM HEPES at pH 7.4 by top-count assay).
Assay type: functional

T1 sequence (Q9NQS5 whole entry): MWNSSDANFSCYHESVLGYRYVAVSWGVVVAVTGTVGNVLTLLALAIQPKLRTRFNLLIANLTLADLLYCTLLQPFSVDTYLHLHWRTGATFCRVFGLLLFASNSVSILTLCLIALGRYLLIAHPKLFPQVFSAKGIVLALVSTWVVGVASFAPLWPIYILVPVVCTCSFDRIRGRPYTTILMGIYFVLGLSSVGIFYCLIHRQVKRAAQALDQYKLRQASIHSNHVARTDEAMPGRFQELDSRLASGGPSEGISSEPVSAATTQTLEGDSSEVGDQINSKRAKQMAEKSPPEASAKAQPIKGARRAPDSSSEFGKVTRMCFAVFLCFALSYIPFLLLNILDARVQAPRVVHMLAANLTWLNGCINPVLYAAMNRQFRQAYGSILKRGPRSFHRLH

Q: How did the pIC50 turn out when `O=c1nc(OCC2CCCO2)cc2n1CCc1cc(OCc3cccc(-c4cncnc4)n3)ccc1-2` (centres undefined) was run?
A: The pIC50 was at least 6.30.

Q: `O=c1nc(OCC2CCCO2)cc2n1CCc1cc(OCC3COc4ccccc4O3)ccc1-2` (centres undefined) was tested. Which pIC50 did it give?
A: The pIC50 was at least 7.00.

Q: How did the pIC50 turn out when `NC(=O)COc1ccc2c(c1)CCn1c-2cc(OCC2CCCO2)nc1=O` (centres undefined) was run?
A: The pIC50 was under 6.00.

Q: With `CC(C)N(C)C(=O)COc1ccc2c(c1)CCn1c-2cc(OCC2CCCO2)nc1=O` (centres undefined) as the molecule, how does the pIC50 read?
A: The pIC50 was under 6.00.

Q: `CC1(COCc2ccc3c(c2)CCn2c-3cc(OCC3COc4ncccc4O3)nc2=O)COC1` (centres undefined) was tested. Which pIC50 did it give?
A: The pIC50 was at least 7.00.

Q: `CC(C)(C)NCc1ccc2c(c1)CCn1c-2cc(OCC2COc3ncccc3O2)nc1=O` (centres undefined) was tested. Which pIC50 did it give?
A: The pIC50 was under 6.00.

Q: With `C=CCOc1ccc2c(c1)CCn1c-2cc(OCC2CCCO2)nc1=O` (centres undefined) as the molecule, how does the pIC50 read?
A: Its pIC50 is under 6.00.

Q: With `O=C(O)c1ccc(-c2ccc3c(c2)CCn2c-3cc(OCC3CCCO3)nc2=O)cc1` (centres undefined) as the molecule, how does the pIC50 read?
A: Its pIC50 is under 6.00.

Q: `N#CCOc1ccc2c(c1)CCn1c-2cc(OCC2COc3ncccc3O2)nc1=O` (centres undefined) was tested. Which pIC50 did it give?
A: Its pIC50 is at least 7.00.

Q: How did the pIC50 turn out when `CC(C)(O)C#Cc1ccc2c(c1)CCn1c-2cc(OCC2COc3ncccc3O2)nc1=O` (centres undefined) was run?
A: Its pIC50 is at least 7.00.

Q: With `CN(C)C(=O)COc1ccc2c(c1)CCn1c-2cc(OCC2CCCO2)nc1=O` (centres undefined) as the molecule, how does the pIC50 read?
A: Its pIC50 is under 6.00.

Q: With `COc1ccc2c(c1)CCn1c-2cc(OCC2CCc3ccccc3O2)nc1=O` (centres undefined) as the molecule, how does the pIC50 read?
A: The pIC50 was under 6.00.

Q: `O=c1nc(OCC2CCCO2)cc2n1CCc1cc(O)ccc1-2` (centres undefined) was tested. Which pIC50 did it give?
A: The pIC50 was under 6.00.

Q: `COc1ccc(COc2ccc3c(c2)CCn2c-3cc(OCC3CCCO3)nc2=O)cc1` (centres undefined) was tested. Which pIC50 did it give?
A: The pIC50 was at least 7.00.

Q: With `CCC(O)C#Cc1ccc2c(c1)CCn1c-2cc(OCC2COc3ncccc3O2)nc1=O` (centres undefined) as the molecule, how does the pIC50 read?
A: Its pIC50 is at least 7.00.

Q: With `O=c1nc(OCC2CCCO2)cc2n1CCc1cc(OCc3cccc(-c4ccccc4)n3)ccc1-2` (centres undefined) as the molecule, how does the pIC50 read?
A: The pIC50 was under 6.00.

Q: How did the pIC50 turn out when `O=c1nc(OCC2COc3ncccc3O2)cc2n1CCc1cc(OCc3ccccn3)ccc1-2` (centres undefined) was run?
A: Its pIC50 is at least 7.00.

Q: How did the pIC50 turn out when `O=C(NCC1COC1)c1ccc2c(c1)CCn1c-2cc(OCC2COc3ncccc3O2)nc1=O` (centres undefined) was run?
A: Its pIC50 is under 6.00.

Q: `O=c1nc(OCC2COc3ncccc3O2)cc2n1CCc1cc(COCCN3CCOCC3)ccc1-2` (centres undefined) was tested. Which pIC50 did it give?
A: Its pIC50 is at least 7.00.

Q: How did the pIC50 turn out when `Cn1cc(-c2ccc3c(c2)CCn2c-3cc(OCC3CCCO3)nc2=O)cn1` (centres undefined) was run?
A: The pIC50 was under 6.00.

Q: How did the pIC50 turn out when `N#Cc1ccc(-c2ccc3c(c2)CCn2c-3cc(OCC3CCCO3)nc2=O)cc1` (centres undefined) was run?
A: Its pIC50 is under 6.00.

Q: With `O=c1nc(OCC2COc3ncccc3O2)cc2n1CCc1cc(COC3COC3)ccc1-2` (centres undefined) as the molecule, how does the pIC50 read?
A: The pIC50 was at least 7.00.

Q: With `O=c1nc(OCC2CCCO2)cc2n1CCc1cc(OCc3cccc([N+](=O)[O-])c3)ccc1-2` (centres undefined) as the molecule, how does the pIC50 read?
A: The pIC50 was at least 7.00.

Q: With `O=c1nc(OCC2COc3ncccc3O2)cc2n1CCc1cc(-c3cn[nH]c3)ccc1-2` (centres undefined) as the molecule, how does the pIC50 read?
A: The pIC50 was at least 7.00.

Q: With `CCN(CC)C(=O)COc1ccc2c(c1)CCn1c-2cc(OCC2CCCO2)nc1=O` (centres undefined) as the molecule, how does the pIC50 read?
A: The pIC50 was under 6.00.

Q: How did the pIC50 turn out when `O=c1nc(OCC2COc3ncccc3O2)cc2n1CCc1cc(C#CCNCc3ccccc3)ccc1-2` (centres undefined) was run?
A: The pIC50 was at least 7.00.

Q: How did the pIC50 turn out when `CC(C)C(O)C#Cc1ccc2c(c1)CCn1c-2cc(OCC2COc3ncccc3O2)nc1=O` (centres undefined) was run?
A: The pIC50 was at least 7.00.

Q: With `CCCC(O)C#Cc1ccc2c(c1)CCn1c-2cc(OCC2COc3ncccc3O2)nc1=O` (centres undefined) as the molecule, how does the pIC50 read?
A: Its pIC50 is at least 7.00.

Q: How did the pIC50 turn out when `O=c1nc(OCC2COc3ncccc3O2)cc2n1CCc1cc(CN3CCCCC3)ccc1-2` (centres undefined) was run?
A: Its pIC50 is at least 7.00.

Q: With `O=c1nc(OCC2CCCO2)cc2n1CCc1cc(OCCOc3ccccc3)ccc1-2` (centres undefined) as the molecule, how does the pIC50 read?
A: Its pIC50 is at least 7.00.

Q: With `O=c1nc(OCC2COc3ccccc3O2)cc2n1CCc1cc(OCc3nnn[nH]3)ccc1-2` (centres undefined) as the molecule, how does the pIC50 read?
A: The pIC50 was at least 7.00.

Q: With `N#CCOc1ccc2c(c1)CCn1c-2cc(OCC2CCCO2)nc1=O` (centres undefined) as the molecule, how does the pIC50 read?
A: The pIC50 was under 6.00.

Q: With `O=c1nc(OCC2COc3ncccc3O2)cc2n1CCc1cc(OCc3nnn[nH]3)ccc1-2` (centres undefined) as the molecule, how does the pIC50 read?
A: Its pIC50 is at least 7.00.

Q: With `CC(O)C#Cc1ccc2c(c1)CCn1c-2cc(OCC2COc3ncccc3O2)nc1=O` (centres undefined) as the molecule, how does the pIC50 read?
A: Its pIC50 is at least 7.00.

Q: `O=c1nc(OCC2COc3ncccc3O2)cc2n1CCc1cc(OCc3ncco3)ccc1-2` (single isomer, unassigned) was tested. Which pIC50 did it give?
A: Its pIC50 is at least 7.00.

Each molecule was assayed against T1, G-protein coupled receptor 84 (assay: Antagonist activity against GPR84 (unknown origin) expressed in cell membranes assessed as inhibition of 3,3'-di-indolylmethane-induced [35S]GTPgammaS binding treated for 90 mins after 3,3'-di-indolylmethane stimulation in buffer containing 20 mM Tris at pH 7.5 by top-count assay).
Assay type: functional

Q: `CN(C)C(=O)c1cccc(-c2ccc3c(c2)CCn2c-3cc(OCC3CCCO3)nc2=O)c1` (centres undefined) was tested. Which pIC50 did it give?
A: Its pIC50 is under 6.00.

Q: `CC(C)(C)OC(=O)n1cccc1-c1ccc2c(c1)CCn1c-2cc(OCC2CCCO2)nc1=O` (centres undefined) was tested. Which pIC50 did it give?
A: Its pIC50 is under 6.00.

Q: How did the pIC50 turn out when `Cc1cccc(C)c1-c1ccc2c(c1)CCn1c-2cc(OCC2CCCO2)nc1=O` (centres undefined) was run?
A: The pIC50 was under 6.00.

Q: How did the pIC50 turn out when `O=c1nc(OCC2CCCO2)cc2n1CCc1cc(-c3cncnc3)ccc1-2` (centres undefined) was run?
A: The pIC50 was under 6.00.
